The record followed here is ChEMBL document CHEMBL1201862, “PubChem BioAssay data set” (2004).

What all share (assay): inhibition of tumour cell growth, NCI panel, 48 h
Experiment [1] concerns 786-0.
In experiment [2] the test system is CAKI-1.
Experiment [3] relates to COLO 205.
Experiment [4] relates to HCC 2998.
Experiment [5] relates to HCT-15.
For experiment [6], the system named is KM12.
Experiment [7] concerns MCF7.
Experiment [8] deals with MOLT-4.
For experiment [9], the system named is Malme-3M.
Experiment [10] relates to NCI-H460.
Experiment [11] relates to NCI/ADR-RES.
Experiment [12] relates to SF-295.
Experiment [13] has as its system SW-620.
Experiment [14] relates to T47D.
The subject of experiment [15] is TK-10.
Experiment [16] concerns UACC-257.
Experiment [17] has as its system UO-31.
Experiment [18] deals with SK-OV-3.
The test system of experiment [19] is OVCAR-4.
The test system of experiment [20] is HOP-92.

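Five compound concentrations were applied to cells in 96-well plates for 48 hours; endpoints were derived by simple linear interpolation of the resulting dose-response curve. GI50: concentration for 50% inhibition of growth.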 Calls of active or inactive are those of the source. No stated cut-off is given here; in the data, active = GI50 up to about 1.1 µM and inactive = higher.

With `O=C(O)c1ccc(Nc2nc3cc(C(F)(F)F)ccc3nc2-c2ccccc2)cc1`, the GI50 in experiment [1] was 18.7 µM (inactive); in experiment [2], 23.3 µM (inactive); in experiment [3], 17.5 µM (inactive); in experiment [4], 16.7 µM (inactive); in experiment [5], 12.9 µM; in [6], 13.2 µM (inactive). Moreover, the GI50 in experiment [7] is > 10 µM (inactive); in experiment [8] it was 24.9 µM (inactive); in experiment [9], 23.7 µM (inactive); in experiment [10], 19.1 µM (inactive); in [11], 22.5 µM (inactive); in experiment [12], 13.4 µM (inactive). The GI50 in [13] was 17.2 µM (inactive); in experiment [14], 7.26 µM (inactive); in experiment [15] it was 15.2 µM (inactive); in experiment [16] it was 35.3 µM (inactive); in [17] it was 17.1 µM (inactive).

In the case of `Cc1nc2c(Cl)cc(Cl)cc2c(Cl)c1CCCl`, the GI50 was > 100 µM (inactive) in experiment [1]; 64 µM (inactive) in experiment [2]; > 100 µM (inactive) in experiment [3]; > 100 µM (inactive) in [4]; 60.5 µM in experiment [5]; > 100 µM (inactive) in experiment [6]. Also, the GI50 is > 100 µM (inactive) in [7]; 55 µM (inactive) in [8]; > 100 µM (inactive) in [9]; > 100 µM (inactive) in experiment [10]; 72.3 µM (inactive) in experiment [11]; > 100 µM (inactive) in experiment [12]. The GI50 in experiment [18] was > 100 µM (inactive); in experiment [13], > 100 µM (inactive); in [14], 52.8 µM (inactive); in experiment [15] it was 32.4 µM (inactive); in experiment [16] it was > 100 µM (inactive); in experiment [17], 30.1 µM (inactive).

As for `O=C(Nc1ccccc1)OCCN=C1c2ccccc2CCc2ccccc21`, the GI50 was 32.6 µM (inactive) in experiment [1]; 18.5 µM (inactive) in [2]; 17.6 µM (inactive) in [3]; 27.5 µM (inactive) in experiment [4]; 15.7 µM in experiment [5]; 14.3 µM (inactive) in [6]. Also, the GI50 in [7] was 24 µM (inactive); in [8], 9.73 µM (inactive); in [9], 22.5 µM (inactive); in [10], 21.4 µM (inactive); in [11], 19.7 µM (inactive); in experiment [19] it was 21.9 µM (inactive). In addition, the GI50 in [12] is 15.5 µM (inactive); in experiment [18] it was 23.6 µM (inactive); in [13] it was 35 µM (inactive); in experiment [14] it was 15.3 µM (inactive); in experiment [15], 31.8 µM (inactive); in experiment [16], 23.1 µM (inactive). For the same compound, the GI50 in [17] was 17.3 µM (inactive).

As to `Cn1nc(Cc2ccc(Cl)cc2)n(N)c1=O`, the GI50 is > 100 µM (inactive) in experiment [1]; > 100 µM (inactive) in [2]; > 100 µM (inactive) in experiment [4]; greater than 100 µM in [5]; > 100 µM (inactive) in [6]; > 100 µM (inactive) in [7]. In addition, the GI50 in experiment [8], in [9], in experiment [10], in experiment [11], in [12] and in [13] was > 100 µM (inactive) throughout. The GI50 in experiment [14], in [15], in experiment [16] and in experiment [17] was > 100 µM (inactive) throughout.

On to `COc1ccc(/C=N/n2c(=O)[nH]c3ccccc3c2=O)cc1`, for which the GI50 is > 100 µM (inactive) in experiment [1]; > 100 µM (inactive) in experiment [2]; > 100 µM (inactive) in experiment [3]; greater than 100 µM in experiment [5]; > 100 µM (inactive) in [20]; > 100 µM (inactive) in experiment [6]. The GI50 in experiment [7], in experiment [8], in experiment [10], in experiment [11], in experiment [12] and in [18] was > 100 µM (inactive) throughout. Moreover, the GI50 in experiment [13], in [14], in experiment [15], in experiment [16] and in experiment [17] was > 100 µM (inactive) each time.

Take `c1ccc(/N=C(\N2CCOCC2)N(CCN2CCOCC2)c2ccccc2)cc1`: the GI50 in [1] was > 100 µM (inactive); in [2] it was > 100 µM (inactive); in [3], > 100 µM (inactive); in experiment [4] it was > 100 µM (inactive); in experiment [5], greater than 100 µM; in experiment [6], > 100 µM (inactive). The GI50 is > 100 µM (inactive) in [7]; > 100 µM (inactive) in experiment [8]; > 100 µM (inactive) in [9]; > 100 µM (inactive) in experiment [10]; > 10 µM (inactive) in experiment [11]; > 100 µM (inactive) in experiment [19]. Besides, the GI50 in [12], in [18], in experiment [13], in experiment [14], in experiment [15] and in [16] was > 100 µM (inactive) throughout. Also, in experiment [17], the GI50 was 45.2 µM (inactive).

Consider `COc1ccccc1/N=N/c1c(O)c(S(=O)(=O)O)cc2cc(S(=O)(=O)O)ccc12`, for which the GI50 in experiment [1] is > 100 µM (inactive); in [2] it was > 100 µM (inactive); in experiment [3], > 100 µM (inactive); in experiment [5], greater than 100 µM; in [20], > 100 µM (inactive); in experiment [6], > 100 µM (inactive). Further, the GI50 in experiment [8], in experiment [9], in experiment [11], in [19], in [12] and in experiment [18] was > 100 µM (inactive) throughout. For the same compound, the GI50 in experiment [13], in [14], in experiment [15], in [16] and in experiment [17] was > 100 µM (inactive) each time.

On to `Nc1n[n+]([O-])c2cc([N+](=O)[O-])ccc2[n+]1[O-]`, for which the GI50 in [1] was 4.63 µM (inactive); in [2], 4.33 µM (inactive); in [3] it was 3.85 µM (inactive); in experiment [5], 3.14 µM; in [7] it was 3.36 µM (inactive); in experiment [8], 0.787 µM (active). Besides, the GI50 is 3.31 µM (inactive) in experiment [10]; 4.36 µM (inactive) in experiment [11]; 3.43 µM (inactive) in experiment [19]; 10.4 µM (inactive) in experiment [12]; 10.5 µM (inactive) in experiment [18]; 2.22 µM (inactive) in [13]. Also, the GI50 in experiment [14] was 3.95 µM (inactive); in experiment [15], 30.2 µM (inactive); in experiment [16], 13.3 µM (inactive); in experiment [17], 10.5 µM (inactive).
